The target of one assay is Tet(X3). In words: biolayer interferometry. The format is binding, Acinetobacter baumannii.
For a further assay, the target named is Tet(X4) (Escherichia coli, UniProt A0A3T0V9Y5). In words: biolayer interferometry. It counts as binding.
Sequence of Tet(X4) (A0A3T0V9Y5 1-385): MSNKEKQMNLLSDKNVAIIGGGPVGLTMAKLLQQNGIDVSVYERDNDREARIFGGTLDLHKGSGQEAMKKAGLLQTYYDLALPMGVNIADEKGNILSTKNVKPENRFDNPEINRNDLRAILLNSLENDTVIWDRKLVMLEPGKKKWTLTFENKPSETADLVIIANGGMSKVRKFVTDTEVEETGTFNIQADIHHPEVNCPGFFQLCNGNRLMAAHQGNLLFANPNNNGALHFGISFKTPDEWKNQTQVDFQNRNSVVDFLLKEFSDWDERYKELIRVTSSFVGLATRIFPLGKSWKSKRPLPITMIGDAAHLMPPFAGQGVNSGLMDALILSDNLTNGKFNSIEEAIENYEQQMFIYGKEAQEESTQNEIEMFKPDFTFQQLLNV

Take `CC1=CC(=O)c2c(O)cccc2C1=O` [plumbagin]: the Kd – broadly, the constant that tells how readily two partners part at equilibrium – at Tet(X3) is 200 µM; at Tet(X4), 1600 µM.

The record behind these values is PMC8933826 (EBioMedicine, 2022).
